{"source": "patent US9789071B2", "about": "(G2B Pharma Inc., priority 2012, dated 2017)", "origin": "cited, not measured here", "key": {"[1]": {"conditions": "dogs"}, "[2]": {"conditions": "IM injection"}, "[3]": {"conditions": "dogs", "remark": "listed apart in the source"}, "[4]": {"conditions": "oral route"}, "[5]": {"conditions": "normal human subjects, IM epinephrine injection"}, "[6]": {"conditions": "sublingual doses 5 to 40 mg, as the bitartrate salt"}, "[7]": {"conditions": "nasal mucosa, needleless high-pressure injection"}}}
{"smiles": "CNC[C@H](O)c1ccc(O)c(O)c1", "note": "[epinephrine]", "values": [{"measurement": "greatest epinephrine plasma concentrations", "setting": "[1]; CPR, 7.5 mg/kg/nostril epinephrine after 0.25 mg/kg/nostril intranasal phentolamine, 1% taurodeoxycholic acid", "value": "~1,400 ng/mL"}, {"measurement": "absolute bioavailability", "setting": "[1]; intranasal, with 1% taurodeoxycholic acid", "value": "quite low"}, {"measurement": "onset of action (Tmax)", "setting": "[2]", "value": "3 to 8", "unit": "min"}, {"measurement": "time peak systolic pressure was maintained", "setting": "[3]", "value": "about 180 seconds"}, {"measurement": "peak systolic pressure", "setting": "[3]; at 60 seconds", "value": "200 % of baseline"}, {"measurement": "peak epinephrine levels in the blood", "setting": "[3]; [7]", "value": "~20", "unit": "ng/mL"}, {"measurement": "time of peak (Tmax) epinephrine levels in the blood", "setting": "[3]; [7]", "value": 0.25, "unit": "min"}, {"measurement": "bioavailability", "setting": "[4]", "value": "negligible"}, {"measurement": "Tmax", "setting": "[5]", "value": "69 ± 19", "unit": "min"}, {"measurement": "plasma concentrations", "setting": "[6]", "value": "equivalent to IM injection"}]}
